In patent publication US20260103473A1 (Avanc Pharmaceutical Co., Ltd., priority 2022, published 2026):
Structures can show the parent of a compound that is named as a salt.

What was measured:
Assay type in all cases: physicochemical
[1] = Test of solubility of salts of the compound of formula (I) in water; settings: room temperature, Table 10; for Solution state: after addition of water; for solubility: thermodynamic from solid, water, monocitrate vs dicitrate
Experimental: About 4-20 mg of salt of the compound of formula (I) was weighed, and the salt was added to the EP tube. A certain amount of solvent was added successively at room temperature. The solution was stirred, and it was observed whether the solid was completely dissolved. If the solid had not been completely dissolved after 10.0 mL of solvent was added, the experiment was stopped. The solubility of the compound in the solvent was estimated based on the volume of solvent used when the solid was completely dissolved.

[2] = Hygroscopicity of salts of the compound of formula (I) (weight gain at 95% humidity); settings: humidity 50% raised to 95% in increments of 15%, 60 min each
Experimental: The compound of formula (I) was placed in a humid environment, wherein the initial humidity of the environment was 50%, and the humidity was increased to 95% in increments of 15%. The maintenance time for each humidity gradient was 60 min. After the ambient humidity was maintained at 95% for 60 min, the weight gain of each salt form was tested to determine the hygroscopicity of the corresponding salt form.
According to the test procedures of Test Example 2, the solubility of the monocitrate salt and dicitrate salt of the compound of formula (I) were respectively tested.

[3] = Stability study of crystal forms (XRPD characterization); settings: high temperature (60° C.), high humidity (25° C./92.5% RH), illumination (25° C./4500 Lux), accelerated (40° C./75% RH); up to 15 days
Experimental: Stability studies under conditions of high temperature (60° C.), high humidity (25° C./92.5% RH), illumination (25° C./4500 Lux), and accelerated condition (40° C./75% RH) were performed on the crystal forms of the compound of formula (I). Samples were taken for XRPD characterization on the 7th and 15th days respectively.
The crystal form G was stored at room temperature for 1 day.

[4] = Dynamic solubility test in biological media and water; settings: for solubility at 0.5 h / solubility at 2 h / solubility at 24 h: thermodynamic from solid
Text: Wherein, FaSSIF could be used to simulate the intestinal fluid in the small intestine in the human pre-prandial hunger state; FeSSIF could be used to simulate the intestinal fluid in the small intestine in the human post-prandial satiety state; FaSSGF could be used to simulate the stomach in the empty stomach in the human hunger state.

[5] = Moisture absorption study of crystal forms by dynamic vapor sorption (DVS) with XRPD afterwards; settings: for weight increase at 80% RH during the adsorption process / weight increase at 95% RH: DVS, with reference to the mass at 50% RH; for XRPD pattern after DVS testing: after humidity cycle 50%-95%-50%
Experimental: Dynamic vapor sorption and desorption analysis of crystal forms were performed using DVS Intrinsic (SMS, UK) to evaluate the hygroscopicity of the crystal forms. The gradient mode was used for the test. The humidity change was 50%-95%-50%. The humidity change amount of each gradient was 15%. The gradient endpoint was determined in the dm/dt manner, with dm/dt less than 0.002% and maintained for 10 minutes as the gradient endpoint, or the maximum maintenance time of each gradient was 60 min. After the test was completed, XRPD analysis was performed on the sample to confirm whether the solid form changed.

[6] = Description of crystal form A: hygroscopicity and solubility in solvents
[7] = monocitrate vs dicitrate, Table 11

In the case of CN1CCN(C2CCN(c3ccc(Nc4ncc5sc(C(=O)N(C)C)c(C6CCCC6)c5n4)nc3)CC2)CC1 [Dicitrate salt], the Solution state [1] is reported as “clear”, the solubility [1] is reported as > 33000 µg/mL and the “Weight gain at 95% humidity” value [2, 7] is reported as 0.64%.

In the case of CN1CCN(C2CCN(c3ccc(Nc4ncc5sc(C(=O)N(C)C)c(C6CCCC6)c5n4)nc3)CC2)CC1.O=C(O)CC(O)(CC(=O)O)C(=O)O [Monocitrate salt], the Solution state [1] is reported as “clear”, the solubility [1] is reported as > 33000 µg/mL and the “Weight gain at 95% humidity” value [2, 7] is reported as 3.45%.

With CN1CCN(C2CCN(c3ccc(Nc4ncc5sc(C(=O)N(C)C)c(C6CCCC6)c5n4)nc3)CC2)CC1 [crystal form A] the “crystal form transformation by XRPD” value [3] was “without any crystal form transformation occurring”, the “XRPD of the remaining solid” value ([4]; FaSSGF) was “No solid remained” and the “Final pH” value ([4]; FaSSGF, initial pH 1.6) was 2.5. For the same molecule, the “XRPD of the remaining solid” value ([4]; FaSSIF) was “No solid remained”, the “Final pH” value ([4]; FaSSIF, initial pH 6.5) was 4.3 and the “XRPD of the remaining solid” value ([4]; FeSSIF) was “No solid remained”. The “Final pH” value ([4]; FeSSIF, initial pH 5.0) was 4.6, the “Final pH” value ([4]; Water) was 3.8 and the “XRPD of the remaining solid” value ([4]; Water) was “No solid remained”. The solubility at 0.5 h ([4]; fassgf or other biorelevant, FaSSGF, pH 1.6, 0.5 h) was > 5470 µg/mL, the solubility at 2 h ([4]; fassgf or other biorelevant, FaSSGF, pH 1.6, 2 h) was > 5480 µg/mL and the solubility at 24 h ([4]; fassgf or other biorelevant, FaSSGF, pH 1.6, 24 h) was > 5380 µg/mL. For the same molecule, the “solution state after suspension for 24 h” value ([4]; four media (FaSSIF, FeSSIF, FaSSGF, water)) was “still clear”, the time to dissolve ([4]; suspended in four media (FaSSIF, FeSSIF, FaSSGF, water)) was ≤ 0.5 h and the solubility at 0.5 h ([4]; FaSSIF, pH 6.5, 0.5 h) was > 5150 µg/mL. The solubility at 2 h ([4]; FaSSIF, pH 6.5, 2 h) was > 5110 µg/mL, the solubility at 24 h ([4]; FaSSIF, pH 6.5, 24 h) was > 5180 µg/mL and the solubility at 0.5 h ([4]; FeSSIF, pH 5.0, 0.5 h) was > 5460 µg/mL. The solubility at 2 h ([4]; FeSSIF, pH 5.0, 2 h) was > 5480 µg/mL, the solubility at 24 h ([4]; FeSSIF, pH 5.0, 24 h) was > 5470 µg/mL and the solubility at 0.5 h ([4]; Water, 0.5 h) was > 5540 µg/mL. The solubility at 2 h ([4]; Water, 2 h) was > 5450 µg/mL, the solubility at 24 h ([4]; Water, 24 h) was > 5480 µg/mL and the “weight increase at 80% RH during the adsorption process” value [5] was 0.25%. For the same molecule, the “weight increase at 95% RH” value [5] was 0.64%, the “XRPD pattern after DVS testing” value [5] was “did not change significantly” and the “hygroscopicity (description)” value [6] was “slightly hygroscopic”. The “solubility (description)” value ([6]; 0.1 mol/L hydrochloric acid solution) was “readily soluble”, the “solubility (description)” value ([6]; Water) was “readily soluble” and the “solubility (description)” value ([6]; acetic acid) was “readily soluble”. For the same molecule, the “solubility (description)” value ([6]; ethanol) was “nearly insoluble” and the “solubility (description)” value ([6]; methanol) was “slightly soluble”.

With CN1CCN(C2CCN(c3ccc(Nc4ncc5sc(C(=O)N(C)C)c(C6CCCC6)c5n4)nc3)CC2)CC1 [crystal form B] the “crystal form transformation by XRPD” value [3] was “did not undergo crystal form transformation”, the “weight increase at 80% RH during the adsorption process” value [5] was 0.24% and the “weight increase at 95% RH” value [5] was 0.69%. The “XRPD pattern after DVS testing” value [5] was “did not change significantly”.

For CN1CCN(C2CCN(c3ccc(Nc4ncc5sc(C(=O)N(C)C)c(C6CCCC6)c5n4)nc3)CC2)CC1 [crystal form C], the “crystal form transformation by XRPD” value [3] was “did not undergo crystal form transformation”, the “weight increase at 80% RH during the adsorption process” value [5] was 0.42% and the “weight increase at 95% RH” value [5] was 3.45%. For the same molecule, the “XRPD pattern after DVS testing” value [5] was “did not change significantly”.

For CN1CCN(C2CCN(c3ccc(Nc4ncc5sc(C(=O)N(C)C)c(C6CCCC6)c5n4)nc3)CC2)CC1 [crystal form D], the “crystal form transformation by XRPD” value [3] was “did not undergo significant crystal form transformation”, the “weight increase at 80% RH during the adsorption process” value [5] was 0.85% and the “weight increase at 95% RH” value [5] was 4.45%. For the same molecule, the “XRPD pattern after DVS testing” value [5] was “did not change significantly”.

For L-Tartrate, the “Weight gain at 95% humidity” value ([2]; Table 9) was 8.18%.
